Data: patent publication EP3831399A1, “ANTI-NOROVIRUS AGENT” (DENSO CORPORATION, priority 2018, dated 2020)
Entries after “also recorded” stand apart in the source; their conditions may differ.

What was measured:
Assay type in all cases: cell-based
Influenza A virus (IFV) = experiment: Virucidal activity of each MGDG fraction, influenza virus; conditions: 50 µg/ml, 37°C, 60 minutes; MDCK cell
[1] = tested on: Herpes simplex virus type 2 (HSV-2); experiment: Virucidal activity of each MGDG fraction, herpes simplex virus type 2; conditions: 50 µg/ml, 37°C, 60 minutes, Vero cell
Experimental: (1) A coccomyxa sp. KJ strain-derived MGDG preparation was subjected to HPLC, and each peak was separated, thereby obtaining five types of MGDG refined products (MGDG1, MGDG2, MGDG3, MGDG4, and MGDG5). Furthermore, the MGDG preparation before separation (containing MGDG1 to MGDG5) was prepared as a mix product. (2) Each sample was mixed with respect to each virus fluid (2×10^5 PFU/ml) so that the final concentration became 50 µg/ml, and the resultant product was left to stand still at 37°C for 60 minutes.
(3) The mixed liquid of (2) is diluted in the MEM culture medium without foetal bovine serum, a culture medium for plaque assay is then overlaid, and culturing is performed at 37°C for 2 to 3 days. (4) After checking appearance of plaques, the cells were immobilized and stained with a neutral red solution, and the number of plaques was measured under a microscope. The virus survival rate of each sample was calculated based on the appearance number of virus appearing in the case of not adding the sample (100%). The virucidal performance of each sample was evaluated from the virus survival rate.

feline calicivirus (FCV) = experiment: Virucidal effect in presence of organic material (BSA); conditions: 1,000 µg/ml
Experimental: • Virus: using feline calicivirus (FCV) as a replacement for norovirus • Used medicine and concentration: 1,000 µg/ml of sodium hypochlorite or coccomyxa sp. KJ strain MGDG preparation • Organic material: using BSA (albumin) 5%
• (1) Feline calicivirus (FCV) was prepared in 2×10^5 PFU/ml. • (2) An MGDG preparation or sodium hypochlorite is prepared at a concentration four times the final assay concentration ([…]). • (3) Bovine serum albumin (BSA) is prepared as an organic material at a concentration four times the final concentration (5%). • (4) Virus fluid: the MGDG preparation or sodium hypochlorite and BSA are mixed at a ratio of 2 : 1 : 1. A sample prepared by adding PBS instead of the MGDG preparation or sodium hypochlorite was used as a control. • (5) After being left at room temperature for 1 minute, 10 minutes, and 60 minutes, 100-fold dilution with PBS is performed. The CRFK cells cultured in a monolayer fashion are added in an amount of 100 µl/culture dish to a 35 mm culture dish, and an infection treatment is performed at room temperature for 1 hour. • (6) A 1% SeaPlaque Agarose-added MEM culture medium is overlaid. • (7) After 2 days, the appeared plaque is immobilized and stained with a crystal violet solution. • (8) The number of plaques is counted under a microscope.

Compound	virucidal (inactivation) activity (virus survival rate) (Influenza A virus (IFV))	virucidal (inactivation) activity (virus survival rate) [1]	virucidal (inactivation) activity (virus survival rate) ([1]; listed as fifth peak of the KJ strain MGDG preparation)	inactivation effect in the presence of the organic material, change versus its absence (feline calicivirus (FCV); 5% BSA)	rate of virus inactivation (feline calicivirus (FCV); organic material (BSA) did not exist, one minute)
monogalactosyldiacylglycerol in which a constituent fatty acid is C18:3 and C18:2 [MGDG5]	significant inactivation effect; also recorded: high virucidal activity	significant inactivation effect	high virucidal activity		
OCl [sodium hypochlorite]				significantly reduced	100%
